Laboratory results: PubChem BioAssay AID1845208 (Molecular Pharmacology Branch, DTP, NCI, 2023)

Tested on: NCI-H196 SCLC complex tumor spheroid viability
Assay: Anticancer human tumor NCI-H196 cell line growth inhibition;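 further: spheroids exposed to compounds for 7 days before readout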;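 on viability, T/C: 100% = DMSO vehicle control wells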
Conditions: for IC50: curve of first compound; for viability, T/C: stronger effect = lower value
Outline: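 Complex spheroids of malignant cells with endothelial cells and mesenchymal stem cells; agents alone or combined, from near clinical Cmax (or 10 microM if unknown) down in half-log steps, 0.25% DMSO final.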

[1] = second compound 0.003 µM, first compound 0.00949 µM
[2] = second compound 0.003 µM, first compound 0.03 µM
[3] = second compound 0.003 µM, first compound 0.0949 µM
[4] = second compound 0.003 µM, first compound 0.3 µM
[5] = second compound 0.003 µM, first compound 0.949 µM
[6] = second compound 0.003 µM, first compound 3 µM
[7] = second compound 0.00949 µM, first compound 0.00949 µM
[8] = second compound 0.00949 µM, first compound 0.03 µM
[9] = second compound 0.00949 µM, first compound 0.0949 µM
[10] = second compound 0.00949 µM, first compound 0.3 µM
[11] = second compound 0.00949 µM, first compound 0.949 µM
[12] = second compound 0.00949 µM, first compound 3 µM
[13] = second compound 0.03 µM, first compound 0.00949 µM
[14] = second compound 0.03 µM, first compound 0.03 µM
[15] = second compound 0.03 µM, first compound 0.0949 µM
[16] = second compound 0.03 µM, first compound 0.3 µM
[17] = second compound 0.03 µM, first compound 0.949 µM
[18] = second compound 0.03 µM, first compound 3 µM
[19] = second compound 0.0949 µM, first compound 0.00949 µM
[20] = second compound 0.0949 µM, first compound 0.03 µM
[21] = second compound 0.0949 µM, first compound 0.0949 µM
[22] = second compound 0.0949 µM, first compound 0.3 µM
[23] = second compound 0.0949 µM, first compound 0.949 µM
[24] = second compound 0.0949 µM, first compound 3 µM
[25] = second compound 0.3 µM, first compound 0.00949 µM
[26] = second compound 0.3 µM, first compound 0.03 µM
[27] = second compound 0.3 µM, first compound 0.0949 µM
[28] = second compound 0.3 µM, first compound 0.3 µM
[29] = second compound 0.3 µM, first compound 0.949 µM
[30] = second compound 0.3 µM, first compound 3 µM

## Cc1sc2c(c1C)C(c1ccc(Cl)cc1)=NC(CC(=O)Nc1ccc(O)cc1)c1nnc(C)n1-2 (stereo not given) + Cn1nnc2c(C(N)=O)ncn2c1=O
Second compound 1 µM
  IC50: 589 nM
Second compound 3.16 µM
  IC50: 669 nM
Second compound 10 µM
  IC50: 716 nM
Second compound 31.6 µM
  IC50: 1340 nM
Second compound 100 µM
  IC50: 2450 nM
Second compound 1 µM, first compound 0.00949 µM
  viability, T/C: 102%
Second compound 1 µM, first compound 0.03 µM
  viability, T/C: 99.5%
Second compound 1 µM, first compound 0.0949 µM
  viability, T/C: 86.6%
Second compound 1 µM, first compound 0.3 µM
  viability, T/C: 68.1%
Second compound 1 µM, first compound 0.949 µM
  viability, T/C: 37.3%
Second compound 1 µM, first compound 3 µM
  viability, T/C: 21.1%
Second compound 3.16 µM, first compound 0.00949 µM
  viability, T/C: 103%
Second compound 3.16 µM, first compound 0.03 µM
  viability, T/C: 97.4%
Second compound 3.16 µM, first compound 0.0949 µM
  viability, T/C: 98.8%
Second compound 3.16 µM, first compound 0.3 µM
  viability, T/C: 75.5%
Second compound 3.16 µM, first compound 0.949 µM
  viability, T/C: 39%
Second compound 3.16 µM, first compound 3 µM
  viability, T/C: 23.3%
Second compound 10 µM, first compound 0.00949 µM
  viability, T/C: 105%
Second compound 10 µM, first compound 0.03 µM
  viability, T/C: 102%
Second compound 10 µM, first compound 0.0949 µM
  viability, T/C: 91.6%
Second compound 10 µM, first compound 0.3 µM
  viability, T/C: 69.1%
Second compound 10 µM, first compound 0.949 µM
  viability, T/C: 44%
Second compound 10 µM, first compound 3 µM
  viability, T/C: 27.6%
Second compound 31.6 µM, first compound 0.00949 µM
  viability, T/C: 108%
Second compound 31.6 µM, first compound 0.03 µM
  viability, T/C: 106%
Second compound 31.6 µM, first compound 0.0949 µM
  viability, T/C: 93.7%
Second compound 31.6 µM, first compound 0.3 µM
  viability, T/C: 87.1%
Second compound 31.6 µM, first compound 0.949 µM
  viability, T/C: 54.5%
Second compound 31.6 µM, first compound 3 µM
  viability, T/C: 34.9%
Second compound 100 µM, first compound 0.00949 µM
  viability, T/C: 115%
Second compound 100 µM, first compound 0.03 µM
  viability, T/C: 105%
Second compound 100 µM, first compound 0.0949 µM
  viability, T/C: 103%
Second compound 100 µM, first compound 0.3 µM
  viability, T/C: 85%
Second compound 100 µM, first compound 0.949 µM
  viability, T/C: 67%
Second compound 100 µM, first compound 3 µM
  viability, T/C: 46.4%

## Cc1sc2c(c1C)C(c1ccc(Cl)cc1)=NC(CC(=O)Nc1ccc(O)cc1)c1nnc(C)n1-2 (stereo not given) + CC[C@@]1(O)C(=O)OCc2c1cc1n(c2=O)Cc2cc3c(CN(C)C)c(O)ccc3nc2-1
Second compound 0.003 µM
  IC50: 613 nM
Second compound 0.00949 µM
  IC50: 688 nM
Second compound 0.03 µM
  IC50: 656 nM
Second compound 0.0949 µM
  IC50: 755 nM
Second compound 0.3 µM
  IC50: 373 nM
[1]
  viability, T/C: 98.8%
[2]
  viability, T/C: 101%
[3]
  viability, T/C: 86.2%
[4]
  viability, T/C: 70.2%
[5]
  viability, T/C: 37.8%
[6]
  viability, T/C: 19.2%
[7]
  viability, T/C: 98.7%
[8]
  viability, T/C: 96.1%
[9]
  viability, T/C: 86.8%
[10]
  viability, T/C: 76.6%
[11]
  viability, T/C: 39.1%
[12]
  viability, T/C: 23.7%
[13]
  viability, T/C: 96.1%
[14]
  viability, T/C: 84%
[15]
  viability, T/C: 80.3%
[16]
  viability, T/C: 64.7%
[17]
  viability, T/C: 41.8%
[18]
  viability, T/C: 29.9%
[19]
  viability, T/C: 98%
[20]
  viability, T/C: 93.6%
[21]
  viability, T/C: 88.1%
[22]
  viability, T/C: 67.4%
[23]
  viability, T/C: 46%
[24]
  viability, T/C: 32.3%
[25]
  viability, T/C: 92.3%
[26]
  viability, T/C: 92.8%
[27]
  viability, T/C: 78.9%
[28]
  viability, T/C: 49.8%
[29]
  viability, T/C: 40.1%
[30]
  viability, T/C: 24.4%

## CNCc1ccc(-c2cc(-c3nc(-c4ccc(S(=O)(=O)C(C)C)cc4)cnc3N)on2)cc1 + CC[C@@]1(O)C(=O)OCc2c1cc1n(c2=O)Cc2cc3c(CN(C)C)c(O)ccc3nc2-1
Second compound 0.003 µM
  IC50: > 3000 nM
Second compound 0.00949 µM
  IC50: > 3000 nM
Second compound 0.03 µM
  IC50: > 3000 nM
Second compound 0.0949 µM
  IC50: > 3000 nM
Second compound 0.3 µM
  IC50: > 3000 nM
[1]
  viability, T/C: 101%
[2]
  viability, T/C: 102%
[3]
  viability, T/C: 101%
[4]
  viability, T/C: 94.3%
[5]
  viability, T/C: 86.2%
[6]
  viability, T/C: 76.1%
[7]
  viability, T/C: 98.5%
[8]
  viability, T/C: 99%
[9]
  viability, T/C: 112%
[10]
  viability, T/C: 95.7%
[11]
  viability, T/C: 84.1%
[12]
  viability, T/C: 78.7%
[13]
  viability, T/C: 101%
[14]
  viability, T/C: 101%
[15]
  viability, T/C: 101%
[16]
  viability, T/C: 93.2%
[17]
  viability, T/C: 76.9%
[18]
  viability, T/C: 81.6%
[19]
  viability, T/C: 99.9%
[20]
  viability, T/C: 104%
[21]
  viability, T/C: 121%
[22]
  viability, T/C: 88.7%
[23]
  viability, T/C: 89.3%
[24]
  viability, T/C: 75.1%
[25]
  viability, T/C: 94.9%
[26]
  viability, T/C: 93.7%
[27]
  viability, T/C: 92.7%
[28]
  viability, T/C: 75%
[29]
  viability, T/C: 65%
[30]
  viability, T/C: 57.1%
